In patent US20060148766A1 (priority 2002, published 2006):

System: living body
Assay: Toxicity test
Settings: in vivo

In the case of `CN(C)c1ccc(O)c2c1C[C@H]1C[C@H]3[C@H](N(C)C)C(O)=C(C(N)=O)C(=O)[C@@]3(O)C(O)=C1C2=O` [minocycline], the “side effects on the living body” value is reported as “no particular side effects”.
